We go through 15 compounds from patent US10392383B2, “3-(1H-benzo[d]imidazol-2-yl)-1H-pyrazolo[4,3-b]pyridines and therapeutic uses thereof” (Samumed, LLC, priority 2015, dated 2019).

For one assay, the system named is IL-6 (THP-1 cells). The experiment in a line: IL-6 inhibition in LPS-stimulated THP-1 monocytes (HTRF). To be noted: Homo sapiens, IL-6 HTRF; for EC50: 500 ng/mL LPS, Table 6; for inhibition at 10 µM: LPS, Table 6, read-out: percent inhibition at 10 μM (given in parentheses for EC50 >10 μM). It is filed as cell-based. How it is done: Human Monocyte Cell Culture: Human monocyte cell line (THP-1 cells; Catalog # TIB-202, ATCC, Manassas, Va.) were cultured in Roswell Park Memorial Institute (RPMI) 1640 Medium (Catalog #21870-100, Buffalo, N.Y.) with 1% L-glutamine, 1% HEPES, 1% Sodium Pyruvate, 2% Sodium Bicarbonate supplemented with 100 units/mL penicillin, 50 μg/mL streptomycin, 2-mercaptoethanol (0.05 mM) [basal medium] and 10% fetal bovine serum (Catalog #16140089, Life Technologies, Carlsbad, Calif.) at 37° C. and 5% CO2.
Compound Screening: THP-1 cells were cultured in basal media with 1% FBS for 24 hours before the start of the assay. Each compound was dissolved in DMSO as a 10 mM stock and used to prepare compound source plates. Serial dilution (1:3, 10-point dose-response curves starting from 10 μM) and compound transfer was performed using the ECHO 550 (Labcyte, Sunnyvale, Calif.) into 384-well white low volume assay plates (Greiner Bio-One) with appropriate DMSO backfill for a final DMSO concentration of 0.1%. THP-1 cells were plated at 5000 cells/well in the 384-well plates and incubated at 37° C. for 2 h. 500 ng/mL of LPS was added after 2 hours and cells were incubated for another 22 hours at 37° C. Plates were spun in a centrifuge for 1 minute at […] and a mixture of anti-IL6 XL665, and anti-IL6 Cryptate diluted in reconstitution buffer (Cisbio Inc.) was added to each well. Following incubation for 3 hrs at room temperature, Homogeneous Time-Resolved Fluorescence (HTRF) was measured using the Envision (Perkin Elmer) at 665 nm and […]. The ratio of fluorescence at 665 nm to 620 nm was used as a readout for IL6 quantification. All samples were processed in duplicate. Readings were normalized to DMSO treated cells and normalized activities were utilized for EC50 calculations using the dose-response log (inhibitor) vs. response-variable slope (four parameters) nonlinear regression feature available in GraphPad Prism 5.0 (or Dotmatics). For EC50 of >10 μM, the percent inhibition at 10 μM is provided.
(TR-FRET usually uses a lanthanide donor and a delayed reading to cut background.)

A further assay relates to SW480 colon cancer cells. The experiment in a line: Cell viability assay (CellTiter-Blue) in SW480 cells. Particulars: Homo sapiens, 96 h, four days; for EC50: CellTiter-Blue, 10 μM to 0.0045 μM; for inhibition at 10 µM: read-out: percent inhibition at 10 μM (given for EC50 of >10 μM). It is filed as cell-based. How it is done:
Representative compounds were screened using the following assay procedure to assess the effect on cell viability as described below.
Each compound was dissolved in DMSO as a 10 mM stock and used to prepare compound source plates. Serial dilution (1:3, 8-point dose-response curves from 10 μM to 0.0045 μM) and compound transfer was performed using the ECHO 550 (Labcyte, Sunnyvale, Calif.) into 96-well clear bottom, black-walled plates (Corning-Costar).
Approximately 2×10^3 SW480 colon cancer cells were seeded into each well and allowed to incubate in the presence or absence of compound for four days at 37° C./5% CO2. Eight replicates of DMSO-treated cells served as controls and cells treated with compound were performed in duplicate.
After incubation, 20 μL of CellTiter-Blue (Promega) was added to each well allowed to incubate for approximately 3 hours. This reagent was a buffered solution which contains resazurin, metabolically active cells were able to reduce rezarurin (blue) into resorufin (pink) which was highly fluorescent. This measured fluorescence was used as a readout for cell viability.
After incubation, the plates were read at Ex 560 nm Em 590 nm (Cytation 3, BioTek). Dose-response curves were generated and EC50 concentration values were calculated using non-linear regression curve fit in the GraphPad Prism (San Diego, Calif.) or Dotmatics' Studies Software (Bishops Stortford, UK). For EC50 of >10 μM, the percent inhibition at 10 μM is provided.
For orientation: Resazurin is reduced to fluorescent resorufin, in cell work by metabolically active cells.

SMILES strings stand for the structures.

In general, EC50 refers to the midpoint of the concentration-response curve. Read a low EC50 as greater potency. `Cc1ncc(-c2ccc3[nH]nc(-c4nc5c(-c6cc(F)cc(NCCN(C)C)c6)cccc5[nH]4)c3n2)n1C` [Compound 781, N^1-(3-(2-(5-(1,2-Dimethyl-1H-imidazol-5-yl)-1H-pyrazolo[4,3-b]pyridin-3-yl)-1H-benzo[d]imidazol-4-yl)-5-fluorophenyl)-N^2,N^2-dimethylethane-1,2-diamine]: the EC50 was 0.164 µM in the assay on IL-6 (THP-1 cells) and 0.549 µM with SW480 colon cancer cells.

As for `CN(C)CCNc1cc(F)cc(-c2cccc3[nH]c(-c4n[nH]c5ccc(-c6cncc(OCCN7CCCC7)c6)nc45)nc23)c1` [Compound 786, N^1-(3-Fluoro-5-(2-(5-(5-(2-(pyrrolidin-1-yl)ethoxy)pyridin-3-yl)-1H-pyrazolo[4,3-b]pyridin-3-yl)-1H-benzo[d]imidazol-4-yl)phenyl)-N^2,N^2-dimethylethane-1,2-diamine], the results for the EC50 with IL-6 (THP-1 cells) and in the assay with SW480 colon cancer cells were 2.07 µM and 3.56 µM, respectively.

Regarding `CN(C)CCNc1cc(F)cc(-c2cccc3[nH]c(-c4n[nH]c5ccc(-c6cncc(OCc7ccccc7)c6)nc45)nc23)c1` [Compound 790, N^1-(3-(2-(5-(5-(Benzyloxy)pyridin-3-yl)-1H-pyrazolo[4,3-b]pyridin-3-yl)-1H-benzo[d]imidazol-4-yl)-5-fluorophenyl)-N^2,N^2-dimethylethane-1,2-diamine], the EC50 with IL-6 (THP-1 cells) was 3.32 µM; with SW480 colon cancer cells, 0.722 µM.

On to `CN(C)CCNc1cc(F)cc(-c2cccc3[nH]c(-c4n[nH]c5ccc(-c6cnccn6)nc45)nc23)c1` [Compound 792, N^1-(3-Fluoro-5-(2-(5-(pyrazin-2-yl)-1H-pyrazolo[4,3-b]pyridin-3-yl)-1H-benzo[d]imidazol-4-yl)phenyl)-N^2,N^2-dimethylethane-1,2-diamine], for which the results for the half-maximal effective concentration (EC50) with IL-6 (THP-1 cells) and with SW480 colon cancer cells were 0.686 µM and 4.23 µM, respectively.

What is called inhibition is how much of the control response was suppressed. On to `COc1cccc(-c2cccc3[nH]c(-c4n[nH]c5ccc(-c6cncc(NC(=O)CC(C)(C)C)c6)nc45)nc23)c1` [Compound 1006, N-(5-(3-(4-(3-methoxyphenyl)-1H-benzo[d]imidazol-2-yl)-1H-pyrazolo[4,3-b]pyridin-5-yl)pyridin-3-yl)-3,3-dimethylbutanamide], for which the EC50 in the assay with IL-6 (THP-1 cells) was more than 10 µM; in the assay with SW480 colon cancer cells it was 5.91 µM. Moreover, in the assay with IL-6 (THP-1 cells), the inhibition at 10 µM was determined as 23.8%.

In the case of `COc1cccc(-c2cccc3[nH]c(-c4n[nH]c5ccc(-c6cncc(NC(=O)C7CCCCC7)c6)nc45)nc23)c1` [Compound 1012, N-(5-(3-(4-(3-Methoxyphenyl)-1H-benzo[d]imidazol-2-yl)-1H-pyrazolo[4,3-b]pyridin-5-yl)pyridin-3-yl)cyclohexanecarboxamide], the EC50 with IL-6 (THP-1 cells) and with SW480 colon cancer cells was more than 10 µM in each case. The inhibition at 10 µM in the assay with IL-6 (THP-1 cells) turned out to be 33%; in the assay with SW480 colon cancer cells, 4.6%.

Turning to `COc1cccc(-c2cccc3[nH]c(-c4n[nH]c5ccc(-c6cn[nH]c6)nc45)nc23)c1` [Compound 1020, 3-(4-(3-Methoxyphenyl)-1H-benzo[d]imidazol-2-yl)-5-(1H-pyrazol-4-yl)-1H-pyrazolo[4,3-b]pyridine], in the assay with IL-6 (THP-1 cells), the EC50 was more than 10 µM and the inhibition at 10 µM was 23.7%. Besides, in the assay with SW480 colon cancer cells, the inhibition at 10 µM worked out at 12.6% and the EC50 was more than 10 µM.

For `COc1cccc(-c2cccc3[nH]c(-c4n[nH]c5ccc(-c6cncc(OC7CCNCC7)c6)nc45)nc23)c1` [Compound 1025, 3-(4-(3-Methoxyphenyl)-1H-benzo[d]imidazol-2-yl)-5-(5-(piperidin-4-yloxy)pyridin-3-yl)-1H-pyrazolo[4,3-b]pyridine], the EC50 came to 4.49 µM in the assay with IL-6 (THP-1 cells) and 5.74 µM in the assay on SW480 colon cancer cells.

Turning to `COc1cccc(-c2cccc3[nH]c(-c4n[nH]c5ccc(-c6cncc(O)c6)nc45)nc23)c1` [Compound 1030, 5-(3-(4-(3-Methoxyphenyl)-1H-benzo[d]imidazol-2-yl)-1H-pyrazolo[4,3-b]pyridin-5-yl)pyridin-3-ol], the half-maximal effective concentration (EC50) came out at 0.0055 µM in the assay with IL-6 (THP-1 cells) and 1.01 µM with SW480 colon cancer cells.

Take `NC1CN(c2cncc(-c3ccc4[nH]nc(-c5nc6c(-c7ccc(Cl)s7)cccc6[nH]5)c4n3)n2)C1` [Compound 1068, 1-(6-(3-(4-(5-Chlorothiophen-2-yl)-1H-benzo[d]imidazol-2-yl)-1H-pyrazolo [4,3-b]pyridin-5-yl)pyrazin-2-yl)azetidin-3-amine]: in the assay with IL-6 (THP-1 cells), the EC50 is more than 10 µM and the inhibition at 10 µM worked out at 42.7%. Further, the EC50 in the assay on SW480 colon cancer cells was found to be 0.953 µM.

With `c1cc(-c2ccc3c(c2)OCO3)c2nc(-c3n[nH]c4ccc(C5CCNCC5)nc34)[nH]c2c1` [Compound 1108, 3-(4-(Benzo[d][1,3]dioxol-5-yl)-1H-benzo[d]imidazol-2-yl)-5-(piperidin-4-yl)-1H-pyrazolo[4,3-b]pyridine], in the assay with IL-6 (THP-1 cells), the EC50 was more than 10 µM and the inhibition at 10 µM was determined as 4.6%. Also, a half-maximal response in the assay on SW480 colon cancer cells (EC50) required 2.28 µM.

For the compound `C1=C(c2ccc3[nH]nc(-c4nc5c(-c6ccc7c(c6)OCO7)cccc5[nH]4)c3n2)CCNC1` [Compound 1109, 3-(4-(Benzo[d][1,3]dioxol-5-yl)-1H-benzo[d]imidazol-2-yl)-5-(1,2,3,6-tetrahydropyridin-4-yl)-1H-pyrazolo[4,3-b]pyridine], the results for the EC50 in the assay on IL-6 (THP-1 cells) and with SW480 colon cancer cells were 5.87 µM and 1.24 µM, respectively.

Turning to `Cn1cc(-c2ccc3[nH]nc(-c4nc5c(-c6ccc(F)cc6)cccc5[nH]4)c3n2)c(CO)n1` [Compound 1129, (4-(3-(4-(4-Fluorophenyl)-1H-benzo[d]imidazol-2-yl)-1H-pyrazolo[4,3-b]pyridin-5-yl)-1-methyl-1H-pyrazol-3-yl)methanol], the results for the EC50 in the assay on IL-6 (THP-1 cells) and with SW480 colon cancer cells were 9.72 µM and 3.01 µM, respectively.

Consider `Cn1cc(-c2ccc3[nH]nc(-c4nc5c(N6CCCCC6)cccc5[nH]4)c3n2)c(CO)n1` [Compound 1134, (1-Methyl-4-(3-(4-(piperidin-1-yl)-1H-benzo[d]imidazol-2-yl)-1H-pyrazolo [4,3-b]pyridin-5-yl)-1H-pyrazol-3-yl)methanol], for which, in the assay on IL-6 (THP-1 cells), the EC50 is more than 10 µM and the inhibition at 10 µM came out at 28.3%. Further, in the assay on SW480 colon cancer cells, the inhibition at 10 µM worked out at 18.2% and the concentration giving a half-maximal response (EC50) was more than 10 µM.

Consider `Cn1cc(-c2ccc3[nH]nc(-c4nc5c(-c6ccc7c(c6)OCO7)cccc5[nH]4)c3n2)c(CO)n1` [Compound 1152, (4-(3-(4-(Benzo[d][1,3]dioxol-5-yl)-1H-benzo[d]imidazol-2-yl)-1H-pyrazolo[4,3-b]pyridin-5-yl)-1-methyl-1H-pyrazol-3-yl)methanol], for which, in the assay with IL-6 (THP-1 cells), the EC50 is more than 10 µM and the inhibition at 10 µM was 23.3%. The EC50 in the assay with SW480 colon cancer cells turned out to be 0.613 µM.
